Assay results reported in patent publication EP0712936B1, “LOW-MOLECULAR DNA FROM STURGEON MILT, A METHOD OF OBTAINING THE DNA AND A PHARMACEUTICAL PREPARATION BASED ON IT” (NAUCHNO-PROIZVODSTVENNOE PREDPRIYATIE "FARMEK", priority 1993, dated 1994).
Read-outs that look alike come from different tables or passages of the source.

Key:
[1] = test system: nonlinear white mice
[2] = test system: HIV; assay: anti-HIV activity at different modes of administration, quantity of syncytia; assay type: in vivo; details: placebo 100
[3] = test system: HIV; assay type: cell-based; details: comparison preparation, no ratio
Method: (§1) The antiviral activity of preparations was assessed by the methods recommended for this purpose by the World Health Organization (20, 21). For this purpose we used the cultures of inoculated cell lines SEM and MT-4. The cells were cultured at a concentration of (0.03-0.05)x10^6 cells per 1 ml of PPM1 1640 with 10-% fetal serum of calves, 300 mg/ml of glutamine, 100 mkg/ml of heptamicine and grown in the form of a suspension. The vital activity of cells was checked by coloring them with a 0.4-% solution of trypan blue. The virus sources were strains HIV/IVS and HIV - 1 HTLV/IIIB.
(§2) The suspension of cells was placed into 24-hole boards, treated with different doses of the preparation and infected with HIV. The multiplicity of infection was 0.01 TCD50 per cell. Then the cultures were incubated at 37 C in the atmosphere containing 5% CO2 at a moisture content of 98% for 5-7 days before determining the cytopathic effect of the virus on the cell culture.
A culture of inoculated cells, line CEMSS and MT-4 was used in the experiment. […]
(§3) Then the cultures were incubated at 37 C in the atmosphere containing 5% of CO at a moisture content of 98% for 5-7 days before determining the cytopathic effect of the virus on the cell culture. The formation of viral antigen was assessed by an immunofermental analysis.

[4] = test system: HIV; assay type: cell-based; details: comparison preparation, no ratio; remark: listed apart in the source
Method: as §1, §2
The formation of viral antigen was assessed by immuno-fermental analysis.
as §3

SMILES: Cc1cn([C@H]2C[C@H](N=[N+]=[N-])[C@@H](CO)O2)c(=O)[nH]c1=O [AZT (azidothymidine), 3-azi-3-desoxythymidine]
- quantity of survived mice / quantity of infected mice ([1]; intraabdominal, 5 mg/kg): 6/6
- quantity of survived mice / quantity of infected mice ([1]; intraabdominal, 10 mg/kg): 6/6
- quantity of survived mice / quantity of infected mice ([1]; intraabdominal, 20 mg/kg): 6/6
- quantity of survived mice / quantity of infected mice ([1]; intraabdominal, 35 mg/kg): 6/6
- quantity of survived mice / quantity of infected mice ([1]; intraabdominal, 50 mg/kg): 6/6
- quantity of survived mice / quantity of infected mice ([1]; intraabdominal, 75 mg/kg): 6/6
- mortality of mice ([1]; intracerebral introduction, doses from 10 to 50 mg/kg): 50%
- quantity of survived mice / quantity of infected mice ([1]; intracerebral, 5 mg/kg): 6/6
- quantity of survived mice / quantity of infected mice ([1]; intracerebral, 10 mg/kg): 6/6
- quantity of survived mice / quantity of infected mice ([1]; intracerebral, 20 mg/kg): 6/6
- quantity of survived mice / quantity of infected mice ([1]; intracerebral, 35 mg/kg): 6/6
- quantity of survived mice / quantity of infected mice ([1]; intracerebral, 50 mg/kg): 6/6
- quantity of survived mice / quantity of infected mice ([1]; intracerebral, 75 mg/kg): 6/6
- quantity of survived mice / quantity of infected mice ([1]; intranasal, 5 mg/kg): 6/6
- quantity of survived mice / quantity of infected mice ([1]; intranasal, 10 mg/kg): 6/6
- quantity of survived mice / quantity of infected mice ([1]; intranasal, 20 mg/kg): 6/6
- quantity of survived mice / quantity of infected mice ([1]; intranasal, 35 mg/kg): 6/6
- quantity of survived mice / quantity of infected mice ([1]; intranasal, 50 mg/kg): 6/6
- quantity of survived mice / quantity of infected mice ([1]; intranasal, 75 mg/kg): 6/6
- quantity of survived mice / quantity of infected mice ([1]; subcutaneous, 5 mg/kg): 6/6
- quantity of survived mice / quantity of infected mice ([1]; subcutaneous, 10 mg/kg): 6/6
- quantity of survived mice / quantity of infected mice ([1]; subcutaneous, 20 mg/kg): 6/6
- quantity of survived mice / quantity of infected mice ([1]; subcutaneous, 35 mg/kg): 6/6
- quantity of survived mice / quantity of infected mice ([1]; subcutaneous, 50 mg/kg): 6/6
- quantity of survived mice / quantity of infected mice ([1]; subcutaneous, 75 mg/kg): 6/6
- Qty of syncytia, % ([2]; intracerebral): 10%
- Qty of syncytia, % ([2]; intranasal): 75%
- No of syncytia, % of virus control [3]: 8%
- Data of immuno-enzyme analysis [4]: 0.1 mg/mg
- Data of immuno-enzyme analysis, optical density [4]: 0.091
